The assay deals with Lysophosphatidic acid receptor 1 (Homo sapiens, UniProt Q92633). The assay is described as follows: Calcium Mobilization Assay. The procedure:
For agonist dose curves, cells were removed from the incubator 2 hours after dye loading and transferred to the FLIPR Tetra instrument (Molecular Devices, San Jose, CA). […] After dye loading, cells were removed from the incubator and 0.3 μL of 200× antagonist was added. Cells were incubated for 60 minutes at 37° C. Antagonist activity was measured on a FLIPR Tetra. Calcium mobilization was monitored for 3.5 minutes and 10 μL 6× EC80 LPA in HBSS, 20 mM HEPES, and 0.1% BSA was added to the cells 5 seconds into the assay. Signal amplitude (Maximum minus minimum) values were plotted against log10 of antagonist concentration using Dose Response T

Lysophosphatidic acid receptor 1, sequence (Q92633 whole entry): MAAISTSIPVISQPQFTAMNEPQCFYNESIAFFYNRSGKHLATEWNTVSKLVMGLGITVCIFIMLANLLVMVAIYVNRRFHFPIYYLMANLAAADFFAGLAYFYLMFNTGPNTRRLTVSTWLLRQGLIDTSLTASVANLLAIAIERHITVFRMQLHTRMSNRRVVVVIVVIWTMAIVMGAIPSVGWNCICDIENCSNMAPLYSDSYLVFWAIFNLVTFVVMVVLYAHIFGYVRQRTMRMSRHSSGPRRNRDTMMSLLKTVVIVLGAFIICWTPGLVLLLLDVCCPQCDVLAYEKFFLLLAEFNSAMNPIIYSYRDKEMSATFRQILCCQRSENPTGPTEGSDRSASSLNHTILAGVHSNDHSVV

In the case of `C[C@@H](OC(=O)Nc1c(-c2ccc(NC(=O)N3CCOCC3)cn2)nnn1C)c1cccnc1Cl` [US11912686, Compound 189], the EC50 worked out at 989 nM. As for `C[C@@H](OC(=O)Nc1c(-c2ccc(NC(=O)[C@H]3C[C@@](F)(C#N)C3)cn2)nnn1C)c1cccnc1Cl` [US11912686, Compound 185], the figure is 1700 nM; as for `CCNC(=O)Nc1ccc(-c2nnn(C)c2NC(=O)O[C@H](C)c2cccnc2Cl)cn1` [US11912686, Compound 4], no less than 10000 nM.

Values taken from BindingDB's records for patent US11912686 (Gilead Sciences, 2024).
